Measurements published in the supplement of paper PMC10307832.

How the values were obtained:
Experiment in all cases: relative viability (nuclei count vs DMSO), 5 days (fraction); higher = more cells survive
BAY61-3606 + Bortezomib = compound: COC1=C(C=C(C=C1)C2=CC3=NC=CN3C(=N2)NC4=C(C=CC=N4)C(=O)N)OC [BAY61-3606] + CC(C)C[C@H](NC(=O)[C@H](Cc1ccccc1)NC(=O)c1cnccn1)B(O)O [Bortezomib] (partner 0.002 µM)
Outline: (§1)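 One day after seeding in 1536-well plates, lung cancer cell lines were dosed by pin tool. Dosing was either single-drug or a fixed anchor-drug dose plus five library-drug doses (not always all listed) in √10 steps. After 5 days, nuclei were stained in one fix-and-stain step and counted on 4× images, and relative viability is the nuclei count of treated wells over that of vehicle wells, given as the median of duplicate plates.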

BAY61-3606 + Tozasertib = compound: COC1=C(C=C(C=C1)C2=CC3=NC=CN3C(=N2)NC4=C(C=CC=N4)C(=O)N)OC [BAY61-3606] + Cc1cc(Nc2cc(N3CCN(C)CC3)nc(Sc3ccc(NC(=O)C4CC4)cc3)n2)n[nH]1 [Tozasertib] (partner 0.1 µM)
Outline: as §1

BAY61-3606 + Lapatinib = compound: COC1=C(C=C(C=C1)C2=CC3=NC=CN3C(=N2)NC4=C(C=CC=N4)C(=O)N)OC [BAY61-3606] + CS(=O)(=O)CCNCc1ccc(-c2ccc3ncnc(Nc4ccc(OCc5cccc(F)c5)c(Cl)c4)c3c2)o1 [Lapatinib] (partner 2 µM)
Outline: as §1

BAY61-3606 + Olaparib = compound: COC1=C(C=C(C=C1)C2=CC3=NC=CN3C(=N2)NC4=C(C=CC=N4)C(=O)N)OC [BAY61-3606] + O=C(c1cc(Cc2n[nH]c(=O)c3ccccc23)ccc1F)N1CCN(C(=O)C2CC2)CC1 [Olaparib] (partner 8 µM)
Outline: as §1

Row | Cell Line | relative viability (BAY61-3606 + Bortezomib; first compound 0.02 µM) | relative viability (BAY61-3606 + Bortezomib; first compound 0.06325 µM) | relative viability (BAY61-3606 + Bortezomib; first compound 0.2 µM) | relative viability (BAY61-3606 + Bortezomib; first compound 0.6325 µM) | relative viability (BAY61-3606 + Bortezomib; first compound 2 µM) | relative viability (BAY61-3606 + Tozasertib; first compound 0.02 µM) | relative viability (BAY61-3606 + Tozasertib; first compound 0.06325 µM) | relative viability (BAY61-3606 + Tozasertib; first compound 0.2 µM) | relative viability (BAY61-3606 + Tozasertib; first compound 0.6325 µM) | relative viability (BAY61-3606 + Tozasertib; first compound 2 µM) | relative viability (BAY61-3606 + Lapatinib; first compound 0.02 µM) | relative viability (BAY61-3606 + Lapatinib; first compound 0.06325 µM) | relative viability (BAY61-3606 + Lapatinib; first compound 0.2 µM) | relative viability (BAY61-3606 + Lapatinib; first compound 0.6325 µM) | relative viability (BAY61-3606 + Lapatinib; first compound 2 µM) | relative viability (BAY61-3606 + Olaparib; first compound 0.02 µM) | relative viability (BAY61-3606 + Olaparib; first compound 0.06325 µM) | relative viability (BAY61-3606 + Olaparib; first compound 0.2 µM) | relative viability (BAY61-3606 + Olaparib; first compound 0.6325 µM) | relative viability (BAY61-3606 + Olaparib; first compound 2 µM)
1 | NCI-H1651 | 1.03 | 0.99 | 0.911 | 0.941 | 0.952 | 0.726 | 0.488 | 0.503 | 0.55 | 0.356 | 0.979 | 0.863 | 0.768 | 0.826 | 0.801 | 0.195 | 0.198 | 0.184 | 0.182 | 0.145
2 | BEN | 0.99 | 0.829 | 0.764 | 0.799 | 0.931 | 0.489 | 0.494 | 0.648 | 0.673 | 0.465 | 0.938 | 0.694 | 0.679 | 0.757 | 0.787 | 1.2 | 0.865 | 1.16 | 1.29 | 0.972
3 | EMC-BAC-2 | 1.11 | 1.13 | 1.06 | 1.09 | 1.08 | 0.288 | 0.19 | 0.243 | 0.238 | 0.225 | 0.882 | 0.969 | 0.861 | 1.11 | 0.921 | 0.493 | 0.52 | 0.48 | 0.493 | 0.457
4 | LXF-289 | 0.985 | 1.03 | 0.992 | 1.04 | 0.99 | 0.227 | 0.183 | 0.194 | 0.16 | 0.165 | 0.886 | 0.945 | 0.95 | 0.934 | 0.992 | 1.05 | 1.1 | 0.96 | 1.04 | 0.963
5 | ABC-1 | 0.291 | 0.308 | 0.35 | 0.427 | 0.284 | 0.2 | 0.181 | 0.163 | 0.16 | 0.208 | 1.34 | 1.03 | 1.23 | 1.05 | 0.98 | 0.908 | 0.686 | 0.76 | 0.494 | 0.711
6 | NCI-H358 |  |  |  |  |  | 0.108 | 0.111 | 0.107 | 0.103 | 0.0821 | 0.435 | 0.378 | 0.477 | 0.378 | 0.288 | 0.654 | 0.601 | 0.751 | 0.573 | 0.449
7 | EBC-1 | 0.571 | 0.632 | 0.616 | 0.569 | 0.459 |  |  |  |  |  | 0.218 | 0.228 | 0.181 | 0.243 | 0.244 | 0.712 | 0.769 | 0.701 | 0.748 | 0.614
8 | NCI-H1563 | 0.84 | 0.803 | 0.948 | 0.988 | 0.631 |  |  |  |  |  | 0.982 | 0.899 | 0.974 | 1.19 | 0.809 |  |  |  |  | 
9 | NCI-H1648 |  |  |  |  |  | 0.376 | 0.356 | 0.448 | 0.408 | 0.231 |  |  |  |  |  | 0.766 | 0.982 | 0.736 |  | 0.765
10 | ChaGo-K-1 | 1.22 | 0.933 | 1.03 | 0.917 | 1.1 | 0.237 | 0.21 | 0.232 | 0.22 | 0.223 |  |  |  |  |  | 0.442 | 0.452 | 0.368 | 0.392 | 0.357
